The source of these data is patent US20190029987A1, “DIMETHYL FUMARATE (DMF) FOR PREVENTION OR TREATMENT OF GOUT, ACNE, DIABETES, VITILIGO AND/OR PYODERMA GANGRENOSUM” (UNIVERSITAT ZURICH, priority 2016, published 2019).

In experiment [1] the test system is Nrf2. Description: Nrf2 stabilisation and nuclear accumulation in human primary keratinocytes (Western blot). The format is cell-based. The following applies: HPKs, 10 μM, FIG. 6E,F; for expression of the other Nrf2 complex proteins Keap1, Cul3, and Rbx1: 1 h; for stabilisation and nuclear accumulation of Nrf2 protein: harvested after 1 h. Here is the method:
Human primary keratinocytes (HPKs) constitutively express pro-IL-1β and inflammasome proteins.
FIG. 6: Bone marrow (BM) cells were isolated from Nrf2-deficient mice and wt litterfnates and differentiated into dendritic cells (DCs). (A, B) After priming with upLPS overnight, BMDCs were treated with the NLRP3 inflammasome activators nigericin (20 μM), zymosan (20 μg/ml), MSU (150 μg/ml), ATP (5 mM) or transfected with poly(dA:dT) (1 μg/ml) for activation of the AIM2 inflammasome. After 6 h, supernatants were analysed for secretion of IL-1β by (A) ELISA or (B) Western blot. Mock-treated but primed BMDCs were analysed for expression of inflammasome proteins and pro-IL-1β at the (C) mRNA level by qRT-PCR or at the (D) protein level by Western blot. (B, D) Duplicates from two individual mice per genotype are shown (biological replicates). (E-G) HPKs were treated with the Nrf2 activators SFN (10 μM), tBHQ (10 μM), DMF (50 μM) and 15d-PGJ2 (10 μM). After 1 h, the cells were harvested and analysed for expression of the indicated proteins using total cell lysates (E) or cytoplasmic and nuclear lysates (F). Western blots for the nuclear protein lamin NC and the cytoplasmic protein α-tubulin served as controls. Specific bands are marked with an asterisk. (G) Total RNA was isolated after 8 h and qRT-PCR was performed for quantification of expression of the Nrf2 target genes glutamate-cysteine ligase, catalytic subunit (GCLC), glutamate-cysteine ligase, modifier subunit (GCLM), and NAD(P)H dehydrogenase, quinone 1 (N001). (A-G) Representative experiments performed at least three times are shown. […] Mann-Whitney test was performed. […] Mann-Whitney test was performed. *P≤0.05
For orientation: In western blotting, separated proteins are transferred to a membrane and probed.

Experiment [2] deals with Monosodium urate (MSU) crystal-induced peritonitis. The conditions noted are these: mice, high concentrations injected into the peritoneum; cited from earlier work.
In experiment [3] the test system is ASC. The following applies: THP1, 10 μM, nigericin 5 μM for 2.5 h, FIG. 5F.
Procedure: In order to analyse, at which level SFN blocks inflammasome activation, the inventors determined the formation of ASC specks in SFN-treated and inflammasome activated THP1 cells (FIG. 5F). Formation of ASC specks is an upstream event of inflammasome activation.
ASC specks were analysed as described (Nara et al., Nat Immunol 2013. 14: 1247-1255),
(F) THP1 cells (3 d differentiated with TPA, overnight primed with LPS) were stimulated with SFN (10 μM) or the solvent DMSO and mock-treated or with nigericin (5 μM) for 2.5 h. Lysates were harvested in Triton buffer and analysed for soluble and insoluble (indicating speck formation) ASC or in DSS-containing buffer for detection of ASC monomers, dimers and oligomers by Western blotting. IL-1β secretion was determined by ELISA.
The target in experiment [4] is NLRP3 inflammasome (Mus musculus, UniProt Q8R4B8). The conditions noted are these: BMDCs from wt and Nrf2 knockout mice, 10 μM 1 h before 5 μM nigericin, 4.5 h, FIG. 5D,E.
Procedure: To address this possibility, the inventors treated BMDCs from wild-type and Nrf2 knockout mice with SFN or vehicle (FIG. 5 D, E).
(D, E) DCs were differentiated from the bone marrow of wt and Nrf2 knockout mice (n=4), primed overnight with upLPS and treated with the solvent DMSO (ctrl) or SFN (10 μM). After 1 h, BMDCs were treated with 5 μM nigericin and harvested 4.5 h later. (D) Western blots for expression and activation of the indicated proteins and (E) ELISA for quantification of secretion of IL-1p. […] IL-1β secretion was determined by ELISA. […] (A-E) Representative experiments performed at least three times are shown. (E) Error bars represent the mean±SD of a representative experiment performed in triplicates.
Experiment [5] relates to Nrf2 target genes Gstp1, Nqo1 and Srxn1. The experiment in a line: Nrf2 target gene expression in liver of treated mice (qRT-PCR). It is filed as in vivo, mouse. The following applies: oral gavage 25 mg/kg, FIG. 3C. On the technique in general: In qPCR the cycle at which signal appears reflects the starting amount.
Procedure: (§1) Monosodium urate (MSU) crystal-induced peritonitis is a mouse model of inflammation and gout, which is dependent on IL-1, IL-1R1, MyD88 and the NLRP3 inflammasome. […] The inventors chose a different way of administration and supplied mice with SFN or DMF by oral gavage to determine a potential anti-inflammatory activity of the Nrf2 activators in vivo (FIG. 3). […] The inventors analysed the cellular infiltrate in the peritoneum 6 h post injection of MSU crystals.
qRT-PCR was performed with the LightCycler 480 SYBR Green Master or the FastStart Universal SYBR Green Master (both Roche, Rotkreuz, Switzerland) using total cellular RNA. Specific primer pairs (Supplementary Table 2) were designed to generate an approximately 150 bp fragment flanking an intron-exon border of the corresponding gene. […]
Mice treated by gavage with (A, B, C) SFN (25 mg/kg) in PBS or (D, E, F) DMF (20 mg/kg) in H2O containing 0.08% methocel and 10% DMSO, vehicle-treated mice served as control. […] Peritonitis was induced by peritoneal injection of 2 mg MSU crystals, (B, E) After 6 h the number of neutrophils of the peritoneal lavage was determined by flow cytornetry. (C, F) At the same time, the liver was isolated and analysed for the expression of the Nrf2 target genes Gstp1, Nqo1 and Srxn1 by qRT-PCR. […]
The test system of experiment [6] is Monosodium urate (MSU) crystal-induced peritonitis. Description: MSU crystal-induced peritonitis mouse model (neutrophils in peritoneal lavage). It is filed as in vivo. The following applies: mice, oral gavage 25 mg/kg in PBS for two days, 6 h post 2 mg MSU crystals, vs control mice, FIG. 3B.
Procedure: as §1
Mice were challenged with 2 mg of MSU crystals for 6 hours as previously described (Chen et a Olin Invest 2006. 116: 2262-2271).
Mice treated by gavage with (A, B, C) SFN (25 mg/kg) in PBS or (D, E, F) DMF (20 mg/kg) in H2O containing 0.08% methocel and 10% DMSO, vehicle-treated mice served as control. Regime for (A) SFN or (D) DMF treatment. Peritonitis was induced by peritoneal injection of 2 mg MSU crystals, (B, E) After 6 h the number of neutrophils of the peritoneal lavage was determined by flow cytornetry. […] Statistics: Student's t-test. (B, C) n≥3, (E, F) n=7. *P≤0.05; **P≤0.01
The target in experiment [7] is caspase-1 / Rbx1 interaction (Homo sapiens, UniProt P29466). The conditions noted are these: HPKs, 50 μM, harvested 1 h later, FIG. 5C.
Sequence of caspase-1 / Rbx1 interaction (P29466 120-404): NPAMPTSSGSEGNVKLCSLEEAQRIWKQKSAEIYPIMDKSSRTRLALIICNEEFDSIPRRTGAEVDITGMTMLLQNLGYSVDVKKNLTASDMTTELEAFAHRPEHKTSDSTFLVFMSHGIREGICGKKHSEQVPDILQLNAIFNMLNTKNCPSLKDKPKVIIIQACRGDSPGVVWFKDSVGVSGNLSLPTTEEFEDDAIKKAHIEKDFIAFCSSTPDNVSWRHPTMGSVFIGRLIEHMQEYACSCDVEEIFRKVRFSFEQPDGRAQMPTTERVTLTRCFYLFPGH
Procedure: To address this point, the inventors performed co-immunoprecipitation (co-IP) experiments with an antibody for caspase-1 and lysates of HPKs. […] In addition, the inventors overexpressed a FLAG-tagged version of caspase-1 in HPKs and precipitated the protease with an ANTI-FLAG M2 Affinity Gel (FIG. 5B).
Co-immunoprecipitation (co-IP) was performed with lysates of HPKs as described (Sollberger et al., J Immunol 2012. 188: 1992-2000). Briefly, HPKs were grown in 10 cm dishes, transfected with siRNA (scr or siRNA targeting Rbx1), and propagated to 80% confluency (3 days), Four dishes were harvested in 150 μl co-IP buffer with complete proteinase inhibitor (Roche, Rotkreuz, Switzerland), respectively. After treatment in a douncer, the lysates were centrifuged (20 min, 17 000×g). The supernatant was diluted 1: 1 with co-IP buffer and incubated with 20 μg antibody (caspase-1 or HA). After centrifugation, 150 μl (50 mg/ml) protein A Sepharose (GE Healthcare, Little Chalfront, UK) was added. After 90 min, the beads were washed four times with co-IP buffer and resuspended in 100 μl 2×loading SDS buffer. Alternatively, co-immunoprecipitation was performed using an ANTI-FLAG® M2 Affinity Gel (Sigma). HPKs were grown in 10 cm dishes and transduced with lentiviral constructs encoding FLAG-tagged caspase-1 or GFP as described above. […]

Sequence of NLRP3 inflammasome (Q8R4B8 whole entry): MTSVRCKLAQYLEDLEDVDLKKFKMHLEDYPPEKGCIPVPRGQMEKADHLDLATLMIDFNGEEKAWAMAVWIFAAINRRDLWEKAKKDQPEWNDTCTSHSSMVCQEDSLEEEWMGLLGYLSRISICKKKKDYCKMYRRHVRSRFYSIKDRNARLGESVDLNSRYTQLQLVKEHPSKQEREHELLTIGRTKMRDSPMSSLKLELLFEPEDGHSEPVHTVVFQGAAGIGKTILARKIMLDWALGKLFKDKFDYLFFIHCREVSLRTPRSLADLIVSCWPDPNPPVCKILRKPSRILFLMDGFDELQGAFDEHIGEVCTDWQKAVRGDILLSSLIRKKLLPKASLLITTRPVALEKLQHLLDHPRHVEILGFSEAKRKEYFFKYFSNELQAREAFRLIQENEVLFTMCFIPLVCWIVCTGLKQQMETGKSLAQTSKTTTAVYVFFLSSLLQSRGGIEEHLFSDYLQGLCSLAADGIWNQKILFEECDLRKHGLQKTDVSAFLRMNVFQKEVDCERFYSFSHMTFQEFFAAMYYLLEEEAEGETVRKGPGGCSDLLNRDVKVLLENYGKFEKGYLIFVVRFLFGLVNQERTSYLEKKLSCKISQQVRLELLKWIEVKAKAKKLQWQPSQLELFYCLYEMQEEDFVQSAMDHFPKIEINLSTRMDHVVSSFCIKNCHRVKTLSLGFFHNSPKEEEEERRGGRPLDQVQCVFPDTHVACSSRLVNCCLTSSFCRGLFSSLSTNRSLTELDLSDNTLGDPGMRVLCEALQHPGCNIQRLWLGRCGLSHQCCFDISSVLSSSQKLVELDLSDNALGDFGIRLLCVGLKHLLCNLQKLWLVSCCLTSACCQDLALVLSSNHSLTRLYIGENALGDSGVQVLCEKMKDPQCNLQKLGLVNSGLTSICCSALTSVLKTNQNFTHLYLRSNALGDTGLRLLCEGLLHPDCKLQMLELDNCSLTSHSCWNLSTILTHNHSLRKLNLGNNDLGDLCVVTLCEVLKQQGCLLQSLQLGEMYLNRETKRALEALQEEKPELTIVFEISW

As for `CCCCCC=CC=C1C(=O)C=CC1CC=CCCCC(=O)O` [15d-PGJ2, 15-deoxy-D-prostaglandin J2], in experiment [1], the “expression of the other Nrf2 complex proteins Keap1, Cul3, and Rbx1” value was “not affected”; the “stabilisation and nuclear accumulation of Nrf2 protein” value was “fast and robust stabilisation and nuclear accumulation of Nrf2 protein”. Moreover, the “inflammasome activation and MSU-induced peritonitis” value in experiment [2] was “blocked inflammasome activation and reduced MSU-induced peritonitis”.
As for `C[S+]([O-])CCCCN=C=S` (centres unmarked) [SFN, sulforaphane], the “ASC speck formation / oligomerization” value in experiment [3] was “prevented oligomerization of the adaptor protein”. In addition, in experiment [4], the “secretion of IL-1β” value is on record as “completely abolished secretion of the cytokine independently of Nrf2 expression”. In experiment [5], the “expression of Nrf2 target genes in the liver” value is recorded as “increased mRNA expression”. For the same molecule, in experiment [1], the “expression of the other Nrf2 complex proteins Keap1, Cul3, and Rbx1” value is on record as “not affected”; the “stabilisation and nuclear accumulation of Nrf2 protein” value is “fast and robust stabilisation and nuclear accumulation of Nrf2 protein”. The “inflammasome activation and MSU-induced peritonitis” value in experiment [2] was “blocked inflammasome activation and reduced MSU-induced peritonitis”. Moreover, in experiment [6], the “number of neutrophils in the peritoneum” value is “significantly reduced”. The “interaction between caspase-1 and Rbx1 (co-IP)” value in experiment [7] was “did not prevent the interaction between caspase-1 and Rbx1”.
